Assay results published in article PMC3561458 (Investigational new drugs, 2011).
Marks after values point to notes of the source that are not given here.

Experiments:
[1] = test system: patients with advanced/metastatic solid tumors; test: Phase I safety: adverse events; type: in vivo, human; conditions: for dose-limiting toxicities (DLTs): all doses
[2] = test system: CDK1; conditions: cited from earlier work
[3] = test system: CDK4; conditions: cited from earlier work
[4] = test system: animals; conditions: high single or repeated doses; cited from earlier work

## CNC(=O)c1nn(C)c2c1C(C)(C)Cc1cnc(Nc3ccc(N4CCN(C)CC4)cc3)nc1-2 [PHA-848125AC, N,1,4,4-tetramethyl-8-{[4-(4-methylpiperazin-1-yl)phenyl]amino}-4,5-dihydro-1H-pyrazolo [4,3-h]quinazoline-3-carboxamide]
[1]; S1
  ERG findings during treatment: No abnormal ERG findings
  doses at which DLTs≥Grade 3 were noted: ≥ 200 mg/day
[1]; S1 50 mg/day N=3, all cycles
  Any drug-related adverse event, CTC Grade 1–4: patients: 3
  Nausea, drug-related, CTC Grade 1–4: patients: 1
[1]; S1 100 mg/day N=6, all cycles
  Any drug-related adverse event, CTC Grade 1–4: patients: 6
  Any drug-related adverse event, CTC Grade 3–4: patients: 1
  Decreased Hb, drug-related, CTC Grade 1–4: patients: 1
  Decreased Hb, drug-related, CTC Grade 3–4: patients: 1
  Diarrhea, drug-related, CTC Grade 1–4: patients: 1
  Fatigue, drug-related, CTC Grade 1–4: patients: 2
  Fatigue, drug-related, CTC Grade 3–4: patients: 1
  Nausea, drug-related, CTC Grade 1–4: patients: 3
  Tremor, drug-related, CTC Grade 1–4: patients: 2
  Vomiting, drug-related, CTC Grade 1–4: patients: 3
[1]; S1 200 mg/day
  DLT events: Grade 3 ataxia and Grade 2–3 tremors
[1]; S1 200 mg/day N=6, all cycles
  Any drug-related adverse event, CTC Grade 1–4: patients: 6
  Any drug-related adverse event, CTC Grade 3–4: patients: 5
  Ataxia, drug-related, CTC Grade 1–4: patients: 3
  Ataxia, drug-related, CTC Grade 3–4: patients: 3
  Diarrhea, drug-related, CTC Grade 1–4: patients: 5
  Diarrhea, drug-related, CTC Grade 3–4: patients: 1
  Dizziness, drug-related, CTC Grade 1–4: patients: 1
  Fatigue, drug-related, CTC Grade 1–4: patients: 2
  Increased ALT, drug-related, CTC Grade 1–4: patients: 1
  Increased ALT, drug-related, CTC Grade 3–4: patients: 1
  Nausea, drug-related, CTC Grade 1–4: patients: 4
  Neutropenia, drug-related, CTC Grade 1–4: patients: 1
  Neutropenia, drug-related, CTC Grade 3–4: patients: 1
  Syncope, drug-related, CTC Grade 1–4: patients: 1
  Syncope, drug-related, CTC Grade 3–4: patients: 1
  Tremor, drug-related, CTC Grade 1–4: patients: 4
  Tremor, drug-related, CTC Grade 3–4: patients: 2
  Vomiting, drug-related, CTC Grade 1–4: patients: 4
[1]; S1 300 mg/day N=1, all cycles
  Any drug-related adverse event, CTC Grade 1–4: patients: 1
  Any drug-related adverse event, CTC Grade 3–4: patients: 1
  Ataxia, drug-related, CTC Grade 1–4: patients: 1
  Ataxia, drug-related, CTC Grade 3–4: patients: 1
  Dehydration, drug-related, CTC Grade 1–4: patients: 1
  Diarrhea, drug-related, CTC Grade 1–4: patients: 1
  Dizziness, drug-related, CTC Grade 1–4: patients: 1
  Fatigue, drug-related, CTC Grade 1–4: patients: 1
  Nausea, drug-related, CTC Grade 1–4: patients: 1
  Tremor, drug-related, CTC Grade 1–4: patients: 1
  Vomiting, drug-related, CTC Grade 1–4: patients: 1
[1]; S1 (7 days on/7 days off q2wks)
  dose-limiting toxicities (DLTs): ataxia (Grade 2–4) and tremors (Grade 2–3)
[1]; S1, single patient, Grade 1 increased lacrimation
  patients with drug-related eye disorders: 4.5%
[1]; S1 N=22
  patients discontinued due to adverse events: 13.6%
[1]; S2
  ataxia: not observed
  fundoscopy and ERG abnormalities during treatment: neither clinically relevant abnormality at fundoscopy nor ERG abnormalities
[1]; S2 150 mg/day N=5, all cycles
  Anemia, drug-related, CTC Grade 1–4: patients: 2
  Any drug-related adverse event, CTC Grade 1–4: patients: 5
  Any drug-related adverse event, CTC Grade 3–4: patients: 4
  Diarrhea, drug-related, CTC Grade 1–4: patients: 3
  Hypokalemia, drug-related, CTC Grade 1–4: patients: 1
  Hypokalemia, drug-related, CTC Grade 3–4: patients: 1
  Increased ALT, drug-related, CTC Grade 1–4: patients: 1
  Increased ALT, drug-related, CTC Grade 3–4: patients: 1
  Increased Lipase, drug-related, CTC Grade 1–4: patients: 1
  Increased Lipase, drug-related, CTC Grade 3–4: patients: 1
  Nausea, drug-related, CTC Grade 1–4: patients: 3
  Neutropenia, drug-related, CTC Grade 1–4: patients: 1
  Tremor, drug-related, CTC Grade 1–4: patients: 3
  Vomiting, drug-related, CTC Grade 1–4: patients: 2
  Vomiting, drug-related, CTC Grade 3–4: patients: 1
[1]; S2 200 mg/day N=4, all cycles
  Anemia, drug-related, CTC Grade 1–4: patients: 2
  Any drug-related adverse event, CTC Grade 1–4: patients: 4
  Any drug-related adverse event, CTC Grade 3–4: patients: 2
  Dehydration, drug-related, CTC Grade 1–4: patients: 1
  Diarrhea, drug-related, CTC Grade 1–4: patients: 3
  Diarrhea, drug-related, CTC Grade 3–4: patients: 1
  Dizziness, drug-related, CTC Grade 1–4: patients: 2
  Fatigue, drug-related, CTC Grade 1–4: patients: 3
  Nausea, drug-related, CTC Grade 1–4: patients: 1
  Neutropenia, drug-related, CTC Grade 1–4: patients: 1
  Tremor, drug-related, CTC Grade 1–4: patients: 2
  Tremor, drug-related, CTC Grade 3–4: patients: 1
  Vomiting, drug-related, CTC Grade 1–4: patients: 1
[1]; S2 (4 days on/3 days off × 3wks q4wks)
  dose-limiting toxicities (DLTs): tremors (Grade 2–3), elevated lipase (Grade 3), increased creatinine (Grade 2), and nausea and vomiting (Grade 3)
[1]; S2 N=15
  patients discontinued due to adverse events: 13.3 ^a %
[1]; any schedule, except lymphocytopenia
  blood chemistry and hematology abnormalities: No significant blood chemistry and hematology abnormalities
[1]; both schedules
  doses at which tremors and ataxia were dose-limiting: > 150 mg/day
  lymphocytopenia occurrence: half of cases
  on study deaths: No on study deaths
[1]; in vivo
  effects on coagulation, blood pressure, ECGs: did not cause significant effects
[1]; oral, both schedules (S1 and S2)
  recommended phase II dose (RP2D): 150 mg/day
[2]
  inhibitory activity towards CDK1: inhibitory activity
[3]
  inhibitory activity towards CDK4: inhibitory activity
[4]
  neurological effects in animals: tremors and increased reactivity to external stimuli
